tested on: chol-DH; test: Variation of the redox mediators used, chol-DH activity by the HPLC method; format: biochemical, Rhodococcus spec.; parameters: reference not given here; conditions: relative chol-DH activity with the mediator as artificial electron acceptor, 37° C., pH 7.0
Protocol: The enzyme sample was purified as described in example 2a) and subsequently its property of converting cholesterol was evaluated with the following methods.
An enzyme test was used to determine the chol-DH activity by quantifying the cholestenone formed in which the enzyme reaction proceeded for a defined time period before it was stopped by adding a protein-denaturing agent. Afterwards the amount of product was determined and expressed as μmol per minute and volume unit of the enzyme solution (=volume activity) or weight unit of the protein (=specific activity).
The cholestenone formed was quantified by HPLC analysis after stopping the chol-DH reaction:
One unit is the enzyme activity which oxidizes 1 μmol cholesterol per minute to cholestenone under the test conditions (37° C., pH 7.0). In this case the chol-DH activity is derived from the difference between the cholestenone concentrations of the test mixture and the blank (see above). [formula]
Apart from methyl-1,4-benzoquinone other redox mediators are suitable as electron acceptors for chol-DH. The chol-DH activity was determined by the HPLC method. Various redox mediators are listed in Table 1 that can serve as artificial electron acceptors for chol-DH.

SMILES	chol-DH [%]
O=C1C(Cl)=CC(=Nc2ccc(O)cc2)C=C1Cl [2,6-dichlorophenol-indophenol]	52
O=Nc1ccc(N(CCO)CCO)cc1 [N,N-bis-2(hydroxyethyl)p-nitrosoaniline]	45
CN(C)c1ccc(N=O)cc1 [N,N-dimethy1-4-nitrosoaniline]	95
CC1=CC(=O)C=CC1=O [methyl-1,4-benzoquinone]	100
O=C1C=CC(=O)C=C1 [p-benzoquinone]	109
O=C1C(Cl)=C(Cl)C(=O)C(Cl)=C1Cl [tetrachloro-p-benzoquinone]	27

Reference: patent publication US5856156A, “Microbial cholesterol dehydrogenase, process for its production and use” (Boehringer Mannheim GmbH, priority 1994, dated 1999)
